Results on 16 molecules are retold here after PubChem BioAssay (NCI).

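48-hour exposure; five concentrations; linearly interpolated endpoints. At the GI50, growth is halved. TGI: total growth inhibition.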

Some test systems named below: ACHN renal; A498 renal; SK-MEL-28 melanoma; A549 NSCLC; SF-295 CNS; UACC-257 melanoma; COLO 205 colon; UACC-62 melanoma; SR leukemia.
Common to all, as to assay: NCI anticancer screen, dose series, 48 h

Turning to `O=C(CC1(O)C(=O)Nc2ccccc21)c1cccc(O)c1` (stereo not given), the TGI in the test on ACHN renal, in the test with A498 renal, with SK-MEL-28 melanoma, with A549 NSCLC, in the test on SF-295 CNS and with UACC-257 melanoma was over 100 µM in each case. Moreover, the TGI with COLO 205 colon and in the test on UACC-62 melanoma was over 100 µM each time.
As for `CCN(CC)c1ccc(N=Nc2ccc(-c3nc4cccnc4s3)cc2)cc1`, the TGI with ACHN renal, with A498 renal, with SK-MEL-28 melanoma, in the test on A549 NSCLC, in the test with SR leukemia and in the test with SF-295 CNS was over 100 µM in each case. In addition, the TGI with UACC-257 melanoma, in the test on COLO 205 colon and with UACC-62 melanoma was over 100 µM throughout.
For the molecule `CCOC(=O)C(=O)CC(=O)C(Br)C(Br)c1ccc(Cl)cc1` (stereo not given), the TGI in the test with ACHN renal is over 100 µM; in the test with SK-MEL-28 melanoma it was 72.3 µM; in the test with A549 NSCLC it was over 100 µM; in the test on SF-295 CNS, over 100 µM; with UACC-257 melanoma, 90.1 µM; in the test on COLO 205 colon, 53.5 µM. The molecule also gave a TGI with UACC-62 melanoma of over 100 µM.
With `O=C1CCNC/C1=C\c1ccccc1`, the TGI in the test with ACHN renal is 78 µM; in the test with A498 renal it was over 100 µM; in the test with SK-MEL-28 melanoma, 35.1 µM; in the test on A549 NSCLC it was 92.2 µM; in the test on SR leukemia it was over 100 µM; in the test on SF-295 CNS it was 67.8 µM. Further, the figures for the TGI in the test with UACC-257 melanoma, in the test on COLO 205 colon and in the test on UACC-62 melanoma were 58.8 µM, over 100 µM and 34.3 µM, respectively.
`Nc1ncc(CN2CCCC2)c(-c2ccccc2O)n1`: the TGI with ACHN renal, with A498 renal, with SK-MEL-28 melanoma, with A549 NSCLC, in the test on SR leukemia and in the test with SF-295 CNS was over 750 µM each time. The TGI in the test with UACC-257 melanoma, with COLO 205 colon and with UACC-62 melanoma was over 750 µM each time.
As for `CC(C)(c1ccc(C=O)o1)c1ccc(C(C)(C)c2ccc(C=O)o2)o1`, the TGI in the test on ACHN renal, in the test on A498 renal, in the test with SK-MEL-28 melanoma, with A549 NSCLC, with SR leukemia and in the test with SF-295 CNS was over 100 µM throughout. Also, the TGI in the test with UACC-257 melanoma and in the test with COLO 205 colon was over 100 µM in each case.
`O=[N+]([O-])c1ccc(N=P(c2ccccc2)(c2ccccc2)c2ccccc2)n2nnnc12`: the TGI in the test on ACHN renal was over 100 µM; in the test on A498 renal it was over 100 µM; in the test with SK-MEL-28 melanoma, over 100 µM; in the test on A549 NSCLC, over 100 µM; with SF-295 CNS it was 90.2 µM; with UACC-257 melanoma, over 100 µM. The TGI in the test with COLO 205 colon and with UACC-62 melanoma was over 100 µM in each case.
On to `COC1=CC(=O)C2(C=C1OC)OC[C@H]1Oc3c(ccc4c3C=CC(C)(C)O4)C(=O)[C@H]12` (stereo not given in full), for which the TGI in the test with ACHN renal, in the test on A498 renal, in the test on SK-MEL-28 melanoma, in the test with A549 NSCLC, in the test on UACC-257 melanoma and with COLO 205 colon was over 100 µM each time. Also, in the test on UACC-62 melanoma, the TGI is over 100 µM.
For `CC(=O)OC1(C(C)=O)CC2(c3ccccc3)OC1(c1ccccc1)c1ccccc12` (stereo not given), the TGI in the test on ACHN renal was over 100 µM; with SK-MEL-28 melanoma, over 100 µM; with A549 NSCLC it was over 100 µM; with SR leukemia, over 100 µM; in the test with SF-295 CNS, over 100 µM; in the test with UACC-257 melanoma it was 25.1 µM. Also, the values for the TGI with COLO 205 colon and with UACC-62 melanoma were 21.4 µM and 43.8 µM, respectively.
With `COc1cc(C(=O)/C=C/c2c[nH]c3ccccc23)cc(OC)c1OC`, the GI50 in the test on ACHN renal is 0.0509 µM; in the test with A498 renal, under 0.0119 µM; in the test on SK-MEL-28 melanoma it was 0.494 µM; in the test with A549 NSCLC, 0.0339 µM; in the test on SR leukemia it was under 0.01 µM; with COLO 205 colon it was 0.0192 µM. For the same molecule, in the test with UACC-62 melanoma, the GI50 was under 0.01 µM. Moreover, the TGI was found to be 16.7 µM in the test on ACHN renal; 0.0414 µM in the test on A498 renal; 41.9 µM in the test on SK-MEL-28 melanoma; 24.2 µM with A549 NSCLC; 13.8 µM in the test with SR leukemia; 0.132 µM with COLO 205 colon. The same molecule had a TGI in the test on UACC-62 melanoma of 15.7 µM.
Consider `O=C1c2c(c3c4ccccc4n(CC4CO4)c3c3[nH]c4ccccc4c23)C(=O)N1Cc1ccccc1` (stereo not given), for which the TGI in the test on A498 renal, in the test on SK-MEL-28 melanoma, in the test on A549 NSCLC, in the test on SR leukemia, in the test on SF-295 CNS and with UACC-257 melanoma was over 100 µM throughout. The molecule also had a TGI in the test with UACC-62 melanoma of over 100 µM.
Regarding `CCCCCCNC(=O)CCN(C(=O)O)S(=O)(=O)c1ccc(NC(=O)c2ccccc2)cc1`, the TGI was over 100 µM with ACHN renal; over 100 µM in the test on A498 renal; over 100 µM in the test with SK-MEL-28 melanoma; over 66.2 µM with A549 NSCLC; 53.8 µM in the test with SR leukemia; over 100 µM in the test on SF-295 CNS. Moreover, the TGI in the test on UACC-257 melanoma is over 69.6 µM; in the test with COLO 205 colon it was over 59.8 µM; in the test on UACC-62 melanoma, over 77.7 µM.
`COc1cccc(NC(=O)/C(CS(=O)(=O)CCC(C(C)=O)C(C)=O)=N\NC(C)(C)C)c1`: the TGI in the test with ACHN renal, with A498 renal, with SK-MEL-28 melanoma, in the test on A549 NSCLC, in the test with UACC-257 melanoma and in the test on COLO 205 colon was over 100 µM throughout. In the test with UACC-62 melanoma, this molecule showed a TGI of over 100 µM.
On to `COc1ccc(N2C(=O)[C@@H]3[C@@H]4CC(C)CC[C@@H]4c4c([nH]c5ccccc45)[C@@H]3C2=O)cc1` (stereo not given in full), for which the TGI in the test on ACHN renal is 26.9 µM; in the test on A498 renal, 35.9 µM; with SK-MEL-28 melanoma it was over 100 µM; in the test on A549 NSCLC it was over 68.3 µM; with SR leukemia, over 25.9 µM; with SF-295 CNS it was 45 µM. Moreover, the values for the TGI in the test on UACC-257 melanoma, with COLO 205 colon and in the test on UACC-62 melanoma were over 100 µM, over 55.1 µM and 40.8 µM, respectively.
As for `COc1cc(O)c(C(=O)C2Cc3ccccc32)c(OC)c1` (stereo not given), the TGI in the test with ACHN renal, in the test on A498 renal, with A549 NSCLC, in the test with SF-295 CNS, in the test with UACC-257 melanoma and in the test with COLO 205 colon was over 100 µM in each case. Further, in the test with UACC-62 melanoma, the TGI was over 100 µM.
For `COC1=CC(=O)[C@@]2(C)C(C)[C@H](c3ccccc3)[C@H]2C1=O` (stereo not given in full), the TGI with ACHN renal, with A498 renal, with SK-MEL-28 melanoma, in the test with A549 NSCLC, with SR leukemia and in the test with SF-295 CNS was over 100 µM throughout. Moreover, the TGI with UACC-257 melanoma, in the test with COLO 205 colon and with UACC-62 melanoma was over 100 µM throughout.
